16 compounds from ChEMBL document CHEMBL5724558, “Image-based profiling of drug vulnerabilities in CRC organoids” (2024) can be followed below.

What all share (type): functional, Homo sapiens
What all share (parameters): dose or concentration left out as unconfirmed

Assay [1] deals with Colon cancer organoid. The experiment in a line: Image-based profiling of donated chemical probes and chemogenomic kinase set in O09 CRC organoid. Image analysis is performed on the sum area metric, and the data were normalized to the DMSO control. After imaging the organoid viability is measured using the OneGloEX Luciferase Assay System. The normalized viability data and sum area are reported.

The subject of assay [2] is Colon cancer organoid. Kind of assay: Image-based profiling of donated chemical probes and chemogenomic kinase set in O06 CRC organoid. Image analysis is performed on the sum area metric, and the data were normalized to the DMSO control. After imaging the organoid viability is measured using the OneGloEX Luciferase Assay System. The normalized viability data and sum area are reported.

Assay [3] deals with Colon cancer organoid. Kind of assay: Image-based profiling of donated chemical probes and chemogenomic kinase set in O21 CRC organoid. Image analysis is performed on the sum area metric, and the data were normalized to the DMSO control. After imaging the organoid viability is measured using the OneGloEX Luciferase Assay System. The normalized viability data and sum area are reported.

Where “and” joins values, the source holds several entries; their conditions need not be identical. Equal entries are not always repeated.

With `Cc1cc2c(cc1N1C(=O)c3cccc4c(CCCO)ccc(c34)C1=O)n(C)c(=O)n2C`, the “Cell Viability” value was 57.3322% and 75.8114% in the assay with Colon cancer organoid [1] (Replication number 1); 118.076% and 83.8137% in the assay on Colon cancer organoid [1] (Replication number 2); 68.0185% and 75.3826% with Colon cancer organoid [2] (Replication number 1); 71.5666% and 43.0165% in the assay with Colon cancer organoid [2] (Replication number 2); 93.3541% and 102.286% in the assay on Colon cancer organoid [3] (Replication number 1); 93.8629% and 86.4558% with Colon cancer organoid [3] (Replication number 2).

Regarding `COc1cc(Nc2nc(C)cc(-c3cnn4nc(OC)ccc34)n2)cc(C(F)(F)F)c1`, the “Cell Viability” value is 104.965% and 91.5636% in the assay with Colon cancer organoid [1] (Replication number 1); 103.466% and 113.093% in the assay on Colon cancer organoid [1] (Replication number 2); 101.755% and 109.64% in the assay on Colon cancer organoid [2] (Replication number 1); 94.2101% and 91.9205% in the assay with Colon cancer organoid [2] (Replication number 2); 100.392% and 88.9748% in the assay with Colon cancer organoid [3] (Replication number 1); 126.257% and 100.876% in the assay with Colon cancer organoid [3] (Replication number 2).

Turning to `Cc1sc2c(c1C)C(c1ccc(Cl)cc1)=N[C@@H](CC(=O)OC(C)(C)C)c1nnc(C)n1-2`, the “Cell Viability” value with Colon cancer organoid [1] (Replication number 1) is 38.4274% and 33.3849%; with Colon cancer organoid [1] (Replication number 2), 47.2906% and 27.9949%; in the assay on Colon cancer organoid [2] (Replication number 1), 19.6589% and 56.2953%; in the assay with Colon cancer organoid [2] (Replication number 2), 20.5614% and 51.6198%; in the assay with Colon cancer organoid [3] (Replication number 1) it was 79.5251% and 85.2384%; in the assay on Colon cancer organoid [3] (Replication number 2), 67.4511% and 80.5489%.

As for `Cc1c(Nc2ccc(S(=O)(=O)N3CCN(C)CC3)cc2F)nc2ccc(-c3cnn(C4CC4)c3)cn2c1=O`, the “Cell Viability” value is 191.117% and 102.241% in the assay with Colon cancer organoid [1] (Replication number 1); 170.931% and 98.6379% in the assay on Colon cancer organoid [1] (Replication number 2); 155.776% and 116.215% in the assay with Colon cancer organoid [2] (Replication number 1); 128.897% and 94.1583% in the assay with Colon cancer organoid [2] (Replication number 2); 111.388% and 118.746% in the assay with Colon cancer organoid [3] (Replication number 1); 91.8423% and 96.6587% in the assay with Colon cancer organoid [3] (Replication number 2).

Consider `O=C(CCCCCCNC(=O)c1cnc(N(c2ccccc2)c2ccccc2)nc1)NO` [RICOLINOSTAT], for which the “Cell Viability” value in the assay with Colon cancer organoid [1] (Replication number 2) is 236.119% and 135.984%; with Colon cancer organoid [2] (Replication number 1) it was 107.943% and 108.966%; in the assay with Colon cancer organoid [2] (Replication number 2) it was 120.178% and 118.056%; in the assay with Colon cancer organoid [3] (Replication number 1), 136.698% and 150.49%; in the assay on Colon cancer organoid [3] (Replication number 2), 122.116% and 112.232%.

As for `C=CC(=O)Nc1cccc(C(=O)Nc2ccc(Nc3cc(-c4[nH]c(SC)nc4C)ccn3)cc2)c1`, the “Cell Viability” value is 195.827% and 119.682% with Colon cancer organoid [1] (Replication number 1); 254.944% and 117.159% in the assay with Colon cancer organoid [1] (Replication number 2); 120.545% and 116.4% with Colon cancer organoid [2] (Replication number 1); 120.557% and 114.139% with Colon cancer organoid [2] (Replication number 2); 87.1744% and 91.9861% with Colon cancer organoid [3] (Replication number 1); 133.203% and 116.877% in the assay on Colon cancer organoid [3] (Replication number 2).

For the compound `O=C(Nc1cccnc1)c1cc(-c2ccnc(F)c2)ccc1OCc1ccccc1`, the “Cell Viability” value in the assay on Colon cancer organoid [1] (Replication number 1) is 214.708% and 117.189%; in the assay on Colon cancer organoid [1] (Replication number 2) it was 126.13% and 109.87%; in the assay with Colon cancer organoid [2] (Replication number 1), 114.96% and 114.62%; in the assay on Colon cancer organoid [2] (Replication number 2), 124.178% and 97.892%; in the assay with Colon cancer organoid [3] (Replication number 1), 112.865% and 104.808%; in the assay with Colon cancer organoid [3] (Replication number 2), 105.956% and 96.1497%.

`CC(=O)C1=C(C)N(c2cccc(C(F)(F)F)c2)C(=O)N[C@H]1c1ccc(C#N)nc1` [BAY-677]: the “Cell Viability” value in the assay with Colon cancer organoid [1] (Replication number 1) is 129.525% and 109.185%; in the assay with Colon cancer organoid [1] (Replication number 2) it was 133.262% and 97.2618%; with Colon cancer organoid [2] (Replication number 1), 100.678% and 123.419%; with Colon cancer organoid [2] (Replication number 2), 118.859% and 107.077%; with Colon cancer organoid [3] (Replication number 1) it was 113.516% and 88.4864%; with Colon cancer organoid [3] (Replication number 2), 88.4804% and 82.1429%.

Regarding `O=c1nc(-c2ccccn2)sc2ccccc12` [BTZO-1], the “Cell Viability” value is 107.798% and 116.353% in the assay on Colon cancer organoid [1] (Replication number 1); 106.736% and 92.2965% in the assay on Colon cancer organoid [1] (Replication number 2); 100.751% and 107.26% in the assay on Colon cancer organoid [2] (Replication number 1); 110.744% and 103.05% in the assay with Colon cancer organoid [2] (Replication number 2); 137.995% and 94.89% in the assay on Colon cancer organoid [3] (Replication number 1); 98.0739% and 81.1225% with Colon cancer organoid [3] (Replication number 2).

In the case of `CC(C)(C#Cc1ccc(NC(=O)COc2ccccc2C(=O)c2ccccc2)c(Cl)c1)C(=O)O` [BI 2439], the “Cell Viability” value was 115.901% and 103.937% with Colon cancer organoid [1] (Replication number 1); 114.023% and 92.0585% with Colon cancer organoid [1] (Replication number 2); 94.1417% and 101.057% in the assay on Colon cancer organoid [2] (Replication number 1); 69.7928% and 91.0899% in the assay on Colon cancer organoid [2] (Replication number 2); 94.7659% and 113.344% in the assay with Colon cancer organoid [3] (Replication number 1); 112.811% and 119.578% in the assay with Colon cancer organoid [3] (Replication number 2).

For `C[C@@H](NC(=O)Nc1cc2[nH]ncc2c(CO)n1)c1ccccc1` [ERKi], the “Cell Viability” value in the assay with Colon cancer organoid [1] (Replication number 1) is 38.3769% and 59.9681%; in the assay on Colon cancer organoid [1] (Replication number 2), 20.7917% and 30.6681%; in the assay on Colon cancer organoid [2] (Replication number 1), 27.1255% and 47.7752%; in the assay with Colon cancer organoid [2] (Replication number 2), 41.1023% and 64.199%; in the assay with Colon cancer organoid [3] (Replication number 1), 47.444% and 52.6843%; with Colon cancer organoid [3] (Replication number 2), 54.1158% and 53.5714%.

On to `CO[C@H]1CC[C@H](CNc2ccc(S(=O)(=O)NC(=O)c3ccc(N4CCN(CC5=C(c6ccc(Cl)cc6)CC(C)(C)CC5)CC4)cc3Oc3cnc4[nH]ccc4c3)cc2[N+](=O)[O-])CC1` [A-1211212], for which the “Cell Viability” value in the assay on Colon cancer organoid [1] (Replication number 1) is 50.8739% and 100.725%; with Colon cancer organoid [1] (Replication number 2) it was 51.2572% and 87.2324%; with Colon cancer organoid [2] (Replication number 1) it was 28.9146% and 70.6883%; with Colon cancer organoid [2] (Replication number 2), 21.4505% and 46.3719%; with Colon cancer organoid [3] (Replication number 1), 101.35% and 117.861%; in the assay on Colon cancer organoid [3] (Replication number 2) it was 64.2952% and 94.8335%.

For the compound `COc1c(C)cc(NC(=O)c2nn(Cc3ccc(F)cc3)c3c2CN(C(=O)c2ccc[nH]2)C[C@]3(C)C(N)=O)cc1C`, the “Cell Viability” value is 100.506% and 104.328% in the assay with Colon cancer organoid [1] (Replication number 1); 74.723% and 85.5242% in the assay on Colon cancer organoid [1] (Replication number 2); 208.8% and 152.94% with Colon cancer organoid [2] (Replication number 1); 183.011% and 147.451% in the assay with Colon cancer organoid [2] (Replication number 2); 89.287% and 106.401% in the assay with Colon cancer organoid [3] (Replication number 1); 91.8219% and 96.6587% with Colon cancer organoid [3] (Replication number 2).

For `CC(C)(C)OC(=O)N1CCCC1CNC1CCC(c2cc(F)ccc2F)(S(=O)(=O)c2ccc(Cl)cc2)CC1` (stereo not given) [GSI-NC], the “Cell Viability” value is 125.581% and 90.7884% in the assay with Colon cancer organoid [1] (Replication number 1); 108.329% and 85.8708% in the assay on Colon cancer organoid [1] (Replication number 2); 66.8797% and 82.4356% in the assay with Colon cancer organoid [2] (Replication number 1); 76.3317% and 68.2262% in the assay on Colon cancer organoid [2] (Replication number 2); 89.6265% and 62.8719% in the assay with Colon cancer organoid [3] (Replication number 1); 87.5663% and 80.102% in the assay with Colon cancer organoid [3] (Replication number 2).

For `COc1ccccc1S(=O)(=O)Nc1ccc2c(c1)CN(C)C(=O)N2`, the “Cell Viability” value is 91.3379% and 107.573% in the assay on Colon cancer organoid [1] (Replication number 1); 93.4533% and 109.471% in the assay with Colon cancer organoid [1] (Replication number 2); 152.206% and 125.879% in the assay on Colon cancer organoid [2] (Replication number 1); 155.447% and 126.899% in the assay on Colon cancer organoid [2] (Replication number 2); 64.6421% and 66.4272% in the assay with Colon cancer organoid [3] (Replication number 1); 105.73% and 125.656% in the assay with Colon cancer organoid [3] (Replication number 2).

Turning to `O=C(NCc1ccccc1)c1ccc(S(=O)(=O)NCc2ccccc2)cc1`, the “Cell Viability” value in the assay on Colon cancer organoid [1] (Replication number 1) was 92.4038% and 93.7908%; with Colon cancer organoid [1] (Replication number 2), 103.22% and 86.1192%; in the assay on Colon cancer organoid [2] (Replication number 1), 187.548% and 135.666%; in the assay on Colon cancer organoid [2] (Replication number 2), 115.38% and 119.884%; with Colon cancer organoid [3] (Replication number 1) it was 112.801% and 110.51%; in the assay with Colon cancer organoid [3] (Replication number 2), 91.6281% and 94.6419%.
